Measurements published in patent publication US20060094787A1, “Pharmaceutical composition comprising 5-methyl-2-2'(chloro-6'-fluoroanilino) phenylacetic acid” (priority 2003, published 2006).

Assay: Solubility of drug substance in water / suspension
Type: physicochemical

Cc1ccc(Nc2c(F)cccc2Cl)c(CC(=O)O)c1 [5-methyl-2-(2′-chloro-6′-fluoroanilino)phenylacetic acid]
water solubility of drug substance: relatively water insoluble
